{
  "source": "paper PMC12081876",
  "about": "“Identification of PTGR2 inhibitors as a new therapeutic strategy for diabetes and obesity” (EMBO Molecular Medicine, 2025)",
  "key": {"[1]": {"biological_target": "T1, hPTGR2 (Homo sapiens, UniProt Q8N8N7)", "T1 sequence (Q8N8N7 whole entry)": "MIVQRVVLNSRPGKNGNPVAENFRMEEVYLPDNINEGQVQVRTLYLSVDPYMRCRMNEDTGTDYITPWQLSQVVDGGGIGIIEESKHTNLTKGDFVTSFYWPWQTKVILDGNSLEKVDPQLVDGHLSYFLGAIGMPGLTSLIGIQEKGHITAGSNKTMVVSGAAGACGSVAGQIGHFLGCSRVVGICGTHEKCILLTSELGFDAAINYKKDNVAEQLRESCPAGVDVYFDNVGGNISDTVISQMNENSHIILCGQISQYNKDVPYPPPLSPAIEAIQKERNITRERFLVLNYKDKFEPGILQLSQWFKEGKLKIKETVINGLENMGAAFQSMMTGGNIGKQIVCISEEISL", "experiment": "15-keto-PGE2-dependent PPARγ trans-activation in PTGR2-transfected HEK293T cells", "type": "cell-based", "parameters": "expressed in transfected cells; host or cells: HEK293T", "details": "for Figure 5C relative PPARγ trans-activation (replicates): (+) Ptgr2", "excerpt": "Based on these findings from the Ptgr2^−/− mice, we next searched for druggable chemical inhibitors that can effectively suppress human PTGR2 (hPTGR2) enzymatic activity. Using a high-throughput screening of 12,500 chemicals, we identified 31 hits and generated 282 derivatives using a molecular hybridization strategy among the hits. The in vitro IC50 (the half-maximal inhibitory concentration), EC50 (the concentration for half-maximal effect), and the compound’s activity to restore 15-keto-PGE2-dependent PPARγ trans-activation in HEK293T cells expressing recombinant PTGR2 were profiled.\nGal4-PPARγ/UAS-LUC reporter assay was conducted as previously described (Wu et al, [2008]) with minor modifications. Briefly, HEK293T cells were seeded in 24-well plates at 1 × 10^5 cells/well. After 24-h growth, a DNA solution containing UASG reporter construct, GAL4-PPAR expression plasmid, and TK-Rluc (Renilla luciferase) reporter construct (internal control) was transfected using TurboFect™ transfection reagent (cat. no. R0532, Thermo Fisher). Cells were treated and harvested after another 24 and 48 h, respectively. Luciferase activity was measured using Luc-Pair™ Duo-Luciferase HS Assay Kit (cat. no. LF600, Promega) and normalized with the TK reporter signal."}, "[2]": {"tested_on": "HFHSD-fed obese C57BL6/J mice", "experiment": "Tissue weights (fat pads, liver, BAT)", "type": "in vivo, mouse", "parameters": "Inguinal fat weight (Figure 5N): unit not given here"}, "[3]": {"tested_on": "HFHSD-fed obese C57BL6/J mice", "experiment": "Body composition (fat mass, lean mass, free water, total water)", "type": "in vivo, mouse", "parameters": "Fat mass (Figure 5O) / lean mass (Figure 5O) / Free fluid (Figure 5O): unit not given beside the values"}, "[4]": {"biological_target": "T1, hPTGR2", "experiment": "Enzyme kinetics (Lineweaver–Burk) of hPTGR2 with 15-keto-PGE2", "type": "biochemical", "parameters": "made in house"}, "[5]": {"details": "100 mg/kg/day oral, HFHSD-fed mice, vs vehicle"}, "[6]": {"details": "individual animals, in g (unit assumed)"}},
  "note": "Values joined by “and” are separate entries in the source; they are usually repeats but may differ in a detail not shown here. Equal values may be shown once.",
  "data": [
    {"compound": "Cc1[nH]c2nc(C(C)N3CCN(c4ccccc4)CC3)nn2c(=O)c1Cc1ccc(F)cc1", "note": "(stereo not drawn) [BPRPT245]", "values": [
      {"measurement": "Figure 5C relative PPARγ trans-activation (replicates)", "setting": "[1]; 16nM", "value": "0.5809 and 0.5894 and 0.6256 and 0.6099 and 0.5702"},
      {"measurement": "Figure 5C relative PPARγ trans-activation (replicates)", "setting": "[1]; 80nM", "value": "0.8628 and 0.8769 and 0.8751 and 0.836 and 0.7826"},
      {"measurement": "Figure 5C relative PPARγ trans-activation (replicates)", "setting": "[1]; 400nM", "value": "0.9481 and 0.8913 and 0.9158 and 0.7904 and 0.8206"},
      {"measurement": "Figure 5C relative PPARγ trans-activation (replicates)", "setting": "[1]; 2uM", "value": "0.9154 and 0.9224 and 0.8575 and 0.8409 and 0.8698"},
      {"measurement": "Figure 5C relative PPARγ trans-activation (replicates)", "setting": "[1]; 10uM, (-) Ptgr2 about 1, (+) Ptgr2 alone 0.41-0.61", "value": "0.9406 and 0.9982 and 0.9802 and 0.9197 and 0.9012"}
    ]},
    {"compound": "Cc1[nH]c2nc(C(C)N3CCN(c4ccccc4)CC3)nn2c(=O)c1Cc1ccc(F)cc1", "note": "(stereo not drawn) [BPRPT0245]", "values": [
      {"measurement": "white fat mass and liver mass", "setting": "[2]; [5]", "value": "significantly reduced"},
      {"measurement": "Inguinal fat weight (Figure 5N)", "setting": "[2]; individual animals", "value": "3.1135 and 2.4997 and 3.7598 and 1.225 and 2.118 and 3.7874 and 2.0547 and 1.3489 and 2.0692 and 1.6337"},
      {"measurement": "BAT weight (Figure 5N)", "setting": "[2]; [6]", "value": "0.1698 and 0.1291 and 0.2802 and 0.1132 and 0.1765 and 0.2813 and 0.0604 and 0.0923 and 0.1293"},
      {"measurement": "Liver weight (Figure 5N)", "setting": "[2]; [6]", "value": "1.4298 and 1.1221 and 1.8053 and 1.0426 and 1.3688 and 2.9793 and 1.3504 and 1.1836 and 1.2693 and 1.0805"},
      {"measurement": "Mesenteric fat weight (Figure 5N)", "setting": "[2]; [6]", "value": "1.0785 and 0.4119 and 1.0515 and 0.3617 and 0.4577 and 1.3111 and 0.5735 and 0.369 and 0.413 and 0.3561"},
      {"measurement": "Perigonadal fat weight (Figure 5N)", "setting": "[2]; [6]", "value": "2.771 and 2.393 and 3.067 and 1.288 and 2.096 and 2.817 and 2.396 and 1.58 and 2.043 and 2.048"},
      {"measurement": "body composition: fat mass", "setting": "[3]; [5]", "value": "marginally significantly reduced fat mass"},
      {"measurement": "fluid retention (body composition)", "setting": "[3]; [5]", "value": "did not cause fluid retention"},
      {"measurement": "Fat mass (Figure 5O)", "setting": "[3]; individual animals", "value": "18.94 and 14.08 and 8.33 and 20.43 and 12.66 and 22.41 and 12.99 and 8.39 and 11.25 and 10.06"},
      {"measurement": "Free fluid (Figure 5O)", "setting": "[3]; individual animals", "value": "3.62 and 3.13 and 2.31 and 3.61 and 2.85 and 4.07 and 3.08 and 2.76 and 3.02 and 2.68"},
      {"measurement": "lean mass (Figure 5O)", "setting": "[3]; individual animals", "value": "26.38 and 24.44 and 20.16 and 22.44 and 28.07 and 22.14 and 23.04 and 23.87 and 21.38"},
      {"measurement": "Total water (Figure 5O)", "setting": "[3]; [6]", "value": "24.73 and 22.68 and 18.44 and 23.16 and 20.8 and 26.52 and 20.79 and 21.19 and 22.12 and 19.78"},
      {"measurement": "mode of inhibition (Lineweaver–Burk plot)", "setting": "[4]; BPRPT0245 50 nM", "value": "competitive hPTGR2 inhibitor"},
      {"measurement": "Lineweaver-Burk plot value, average (Figure 5H)", "setting": "[4]; BPRPT0245 50 nM, 15-keto-PGE2(um) 0.01", "value": 0.05189},
      {"measurement": "Lineweaver-Burk plot value, average (Figure 5H)", "setting": "[4]; BPRPT0245 50 nM, 15-keto-PGE2(um) 0.0142857", "value": 0.06506},
      {"measurement": "Lineweaver-Burk plot value, average (Figure 5H)", "setting": "[4]; BPRPT0245 50 nM, 15-keto-PGE2(um) 0.02", "value": 0.06763},
      {"measurement": "Lineweaver-Burk plot value, average (Figure 5H)", "setting": "[4]; BPRPT0245 50 nM, 15-keto-PGE2(um) 0.025", "value": 0.07832},
      {"measurement": "Lineweaver-Burk plot value, average (Figure 5H)", "setting": "[4]; BPRPT0245 50 nM, 15-keto-PGE2(um) 0.0333333", "value": 0.1063},
      {"measurement": "Lineweaver-Burk plot value, average (Figure 5H)", "setting": "[4]; BPRPT0245 50 nM, 15-keto-PGE2(um) 0.05", "value": 0.1377},
      {"measurement": "Lineweaver-Burk plot value, average (Figure 5H)", "setting": "[4]; BPRPT0245 50 nM, 15-keto-PGE2(um) 0.1", "value": 0.2333},
      {"measurement": "Vmax (change on addition of inhibitor)", "setting": "[4]; with BPRPT0245 50 nM", "value": "remained unchanged"},
      {"measurement": "EC50", "setting": "[1]; restoring 15-keto-PGE2-dependent PPARγ trans-activation, HEK293T expressing recombinant PTGR2", "value": 49.2, "unit": "nM"}
    ]}
  ]
}
